# From patent publication EP1025114B1, “3'-N-MODIFIED 6-O-SUBSTITUTED ERYTHROMYCIN KETOLIDE DERIVATIVES HAVING ANTIBACTERIAL ACTIVITY” (priority 1997, dated 1999)
# How the values were obtained:
# Assay in all cases: In vitro antibacterial activity, agar dilution MIC
# Type in all cases: cell-based
# [1] = system: Streptococcus bovis A-5169; conditions: Streptococcus bovis A-5169 (organism code JJ); BHI agar, 35-37 °C, 20 to 24 hours; unit assumed
# Experimental: (§1) Representative compounds of the present invention were assayed in vitro for antibacterial activity as follows: Twelve petri dishes containing successive aqueous dilutions of the test compound mixed with 10 mL of sterilized Brain Heart infusion (BHI) agar (Difco 0418-01-5) were prepared. Each plate was inoculated with 1:100 (or 1:10 for slow-growing strains, such as Micrococcus and Streptococcus) dilutions of up to 32 different microorganisms, using a Steers replicator block. […] In addition, a control plate, using BHI agar containing no test compound, was prepared and incubated at the beginning and end of each test.
# (§2) An additional plate containing a compound having known susceptibility patterns for the organisms being tested and belonging to the same antibiotic class as the test compound was also prepared and incubated as a further control, as well as to provide test-to-test comparability.
# (§3) After incubation, each plate was visually inspected. The minimum inhibitory concentration (MIC) was defined as the lowest concentration of drug yielding no growth, a slight haze, or sparsely isolated colonies on the inoculum spot as compared to the growth control.
# Escherichia coli DC-2 = Escherichia coli DC-2 (organism code SS); BHI agar, 35-37 °C, 20 to 24 hours; unit assumed
# Experimental: as §1, §2, §3
# [2] = system: Streptococcus Pheumoniae 5979; conditions: Streptococcus Pheumoniae 5979 (organism code ZZ); BHI agar, 35-37 °C, 20 to 24 hours; unit assumed
# Experimental: as §1, §2, §3
# [3] = system: Staphylococcus aureus ATCC 6538P; conditions: Staphylococcus aureus ATCC 6538P (organism code AA); BHI agar, 35-37 °C, 20 to 24 hours; unit assumed
# Experimental: as §1, §2, §3
# [4] = system: Enterococcus faecium ATCC 8043; conditions: Enterococcus faecium ATCC 8043 (organism code II); BHI agar, 35-37 °C, 20 to 24 hours; unit assumed
# Experimental: as §1, §2, §3
# [5] = system: Micrococcus luteus ATCC 4698; conditions: Micrococcus luteus ATCC 4698 (organism code PP); BHI agar, 35-37 °C, 20 to 24 hours; unit assumed
# Experimental: as §1, §2, §3
# [6] = system: Haemophilis Influenzae DILL AMP R; conditions: Haemophilis Influenzae DILL AMP R (organism code WW); BHI agar, 35-37 °C, 20 to 24 hours; unit assumed
# Experimental: as §1, §2, §3
# [7] = system: Staphylococcus aureus NCTC10649M; conditions: Staphylococcus aureus NCTC10649M (organism code EE); BHI agar, 35-37 °C, 20 to 24 hours; unit assumed
# Experimental: as §1, §2, §3
# [8] = system: Mycobacterium smegmatis ATCC 114; conditions: Mycobacterium smegmatis ATCC 114 (organism code UU); BHI agar, 35-37 °C, 20 to 24 hours; unit assumed
# Experimental: as §1, §2, §3
# [9] = system: Streptococcus Pheumoniae ATCC6303; conditions: Streptococcus Pheumoniae ATCC6303 (organism code XX); BHI agar, 35-37 °C, 20 to 24 hours; unit assumed
# Experimental: as §1, §2, §3
# [10] = system: Streptococcus pyogenes EES61; conditions: Streptococcus pyogenes EES61 (organism code LL); BHI agar, 35-37 °C, 20 to 24 hours; unit assumed
# Experimental: as §1, §2, §3
# [11] = system: Nocardia Asteroides ATCC9970; conditions: Nocardia Asteroides ATCC9970 (organism code VV); BHI agar, 35-37 °C, 20 to 24 hours; unit assumed
# Experimental: as §1, §2, §3
# [12] = system: Streptococcus Pheumoniae 5649; conditions: Streptococcus Pheumoniae 5649 (organism code ZZA); BHI agar, 35-37 °C, 20 to 24 hours; unit assumed
# Experimental: as §1, §2, §3
# [13] = system: Staphylococcus aureus 1775; conditions: Staphylococcus aureus 1775 (organism code GG); BHI agar, 35-37 °C, 20 to 24 hours; unit assumed
# Experimental: as §1, §2, §3
# [14] = system: Streptococcus agalactiae CMX 508; conditions: Streptococcus agalactiae CMX 508 (organism code KK); BHI agar, 35-37 °C, 20 to 24 hours; unit assumed
# Experimental: as §1, §2, §3
# Escherichia coli JUHL = Escherichia coli JUHL (organism code QQ); BHI agar, 35-37 °C, 20 to 24 hours; unit assumed
# Experimental: as §1, §2, §3
# [15] = system: Staphylococcus epidermidis 3519; conditions: Staphylococcus epidermidis 3519 (organism code HH); BHI agar, 35-37 °C, 20 to 24 hours; unit assumed
# Experimental: as §1, §2, §3
# [16] = system: Staphylococcus aureus CMX 642A; conditions: Staphylococcus aureus CMX 642A (organism code DD); BHI agar, 35-37 °C, 20 to 24 hours; unit assumed
# Experimental: as §1, §2, §3
# [17] = system: Staphylococcus aureus A-5278; conditions: Staphylococcus aureus A-5278 (organism code CC); BHI agar, 35-37 °C, 20 to 24 hours; unit assumed
# Experimental: as §1, §2, §3
# [18] = system: Streptococcus pyogenes 930; conditions: Streptococcus pyogenes 930 (organism code MM); BHI agar, 35-37 °C, 20 to 24 hours; unit assumed
# Experimental: as §1, §2, §3
# [19] = system: Staphylococcus aureus CMX 553; conditions: Staphylococcus aureus CMX 553 (organism code FF); BHI agar, 35-37 °C, 20 to 24 hours; unit assumed
# Experimental: as §1, §2, §3
# Candida albicans CCH 442 = Candida albicans CCH 442 (organism code TT); BHI agar, 35-37 °C, 20 to 24 hours; unit assumed
# Experimental: as §1, §2, §3
# [20] = system: Streptococcus pyogenes PIU 2548; conditions: Streptococcus pyogenes PIU 2548 (organism code NN); BHI agar, 35-37 °C, 20 to 24 hours; unit assumed
# Experimental: as §1, §2, §3
# Escherichia coli SS = Escherichia coli SS (organism code RR); BHI agar, 35-37 °C, 20 to 24 hours; unit assumed
# Experimental: as §1, §2, §3
# [21] = system: Micrococcus luteus ATCC 9341; conditions: Micrococcus luteus ATCC 9341 (organism code OO); BHI agar, 35-37 °C, 20 to 24 hours; unit assumed
# Experimental: as §1, §2, §3
# [22] = system: Streptococcus Pheumoniae GYR 1171; conditions: Streptococcus Pheumoniae GYR 1171 (organism code YY); BHI agar, 35-37 °C, 20 to 24 hours; unit assumed
# Experimental: as §1, §2, §3
# [23] = system: Staphylococcus aureus A5177; conditions: Staphylococcus aureus A5177 (organism code BB); BHI agar, 35-37 °C, 20 to 24 hours; unit assumed
# Experimental: as §1, §2, §3
Structure (SMILES),MIC [1] [µg/mL],MIC (Escherichia coli DC-2) [µg/mL],MIC [2] [µg/mL],MIC [3] [µg/mL],MIC [4] [µg/mL],MIC [5] [µg/mL],MIC [6] [µg/mL],MIC [7] [µg/mL],MIC [8] [µg/mL],MIC [9] [µg/mL],MIC [10] [µg/mL],MIC [11] [µg/mL],MIC [12] [µg/mL],MIC [13] [µg/mL],MIC [14] [µg/mL],MIC (Escherichia coli JUHL) [µg/mL],MIC [15] [µg/mL],MIC [16] [µg/mL],MIC [17] [µg/mL],MIC [18] [µg/mL],also measured
"C=C(CN(C)[C@H]1C[C@@H](C)O[C@@H](O[C@@H]2[C@@H](C)C(=O)[C@@H](C)C(=O)O[C@H](CC)[C@@]3(C)OC(=O)N[C@@H]3[C@@H](C)C(=O)[C@H](C)C[C@@]2(C)OCC=Cc2cnc3ccccc3c2)[C@@H]1O)C(=O)OC [Example 18, Compound of Formula (II); R is -CH2CH=CH-(3-quinolyl), R^p is H, W is absent, R^w is H, R^1 is CH2C(=CH2)C(O)OCH3, R^2 is CH3]",0.02,> 100,128,0.39,0.1,0.39,16,0.39,6.2,≤ 0.004,0.05,0.2,0.5,> 100,0.02,> 100,0.39,0.39,> 100,25,MIC [19]: 0.39 µg/mL; MIC (Candida albicans CCH 442): > 100 µg/mL; MIC [20]: 0.39 µg/mL; MIC (Escherichia coli SS): 0.78 µg/mL; MIC [21]: 0.02 µg/mL; MIC [22]: ≤ 0.004 µg/mL; MIC [23]: 0.39 µg/mL
"CCCN(C)[C@H]1C[C@@H](C)O[C@@H](O[C@@H]2[C@@H](C)C(=O)[C@@H](C)C(=O)O[C@H](CC)[C@@]3(C)OC(=O)N[C@@H]3[C@@H](C)C(=O)[C@H](C)C[C@@]2(C)OCC=Cc2cnc3ccccc3c2)[C@@H]1O [Example 16, Compound of Formula (II); R is -CH2CH=CH-(3-quinolyl), R^p is H, W is absent, R^w is H, R^1 is CH2CH2CH3, R^2 is CH3]",0.01,> 100,128,0.39,0.05,0.39,8,0.39,1.56,0.03,0.01,0.1,0.5,> 100,0.01,> 100,0.39,0.39,> 100,12.5,MIC [19]: 0.39 µg/mL; MIC (Candida albicans CCH 442): > 100 µg/mL; MIC [20]: 0.1 µg/mL; MIC (Escherichia coli SS): 0.2 µg/mL; MIC [21]: 0.02 µg/mL; MIC [22]: 0.03 µg/mL; MIC [23]: 0.39 µg/mL
